Laboratory results from US7262199B2, “Tyrosine kinase inhibitors” (Merck & Co., Inc., priority 2002, dated 2007).

melting point: 147 to 149 °C
Compound: c1ccc(-c2cnn3cc(-c4ccc(CCCN5CCOCC5)cc4)cnc23)cc1 [Compound 2-6, 6-[4-(3-morpholin-4-ylpropyl)phenyl]-3-phenylpyrazolo[1,5-a]pyrimidine]
